Laboratory results published in publication PMC7911889 (Viruses, 2021).

Target: SARS-CoV-2 3CL^pro (Severe acute respiratory syndrome coronavirus 2, UniProt P0DTD1)
Type: cell-based

Compound | Effect on luciferase reporter activity / 3CL^pro inhibition (in words) | EC50 (read-out: EC50, SARS-CoV-2 3CLpro luciferase complementation assay)
CC(C)(C)NC(=O)N[C@H](C(=O)N1C[C@H]2[C@@H]([C@H]1C(=O)NC(CC1CCC1)C(=O)C(N)=O)C2(C)C)C(C)(C)C (stereo partly drawn) [Boceprevir] | clearly inhibited SARS-CoV-2 3CL^pro | 
CC(NC(=O)[C@H](Cc1ccccc1)NC(=O)OCc1ccccc1)C(=O)CF (stereo partly drawn) [Z-FA-FMK] | clearly inhibited SARS-CoV-2 3CL^pro | 26.3 µM
